Results taken from patent US5693617A, “Inhibitors of the 26s proteolytic complex and the 20s proteasome contained therein” (ProScript, Inc., priority 1995, dated 1997).
Entries after “also recorded” stand apart in the source; their conditions may differ. Non-standard residues stand in square brackets, D forms with d. Residues, ends and D or L forms follow the SMILES beside them. Nle = CCCC[C@H](N)C(=O)O

Columns and labels:
[1] = molecular target: chymotrypsin-like activity of the proteasome; details: Vinitsky et al. 1992; slow binding inhibitors; cited from earlier work
rat diaphragm muscle [2] = assay: Protein degradation in incubated rat diaphragm
Procedure: Rat diaphragm muscle was cut into quarters and incubated in medium containing a mixture of amino acids, insulin, inhibitors of lysosomal and calcium dependent proteolysis, and MG 101 at the concentrations shown in FIG. 2. After 1 hour, ^3 H-phenylalanine was added and the incubation continued for 2 hours. Under these conditions, the ATP-dependent ubiquitin pathway is largely responsible for muscle protein degradation. After incubation, the tissue was homogenized and free tyrosine of the homogenate and medium was assayed separately. ^3 -phenylalanine incorporation into protein was also measured. Values are the means +SE of data from 7 animals. Protein synthesis was calculated from the incorporation of ^3 H-phenylalanine, and net protein breakdown was calculated from the release of tyrosine into the incubation medium. The total rate of protein breakdown is calculated from the equation:
Total protein breakdown=Net protein breakdown+Protein synthesis

rat diaphragm muscle [3] = assay: T3 induced protein degradation in incubated rat diaphragm; details: 40 μM MG 101; FIG. 3
Procedure: T3 was administered to hypophysectomized rats for 7 days. […] After incubation, the tissue was homogenized, and ^3 -phenylalanine incorporation into protein and free tyrosine of the medium was measured.

20S proteasome = molecular target: T1, 20S proteasome (Oryctolagus cuniculus, UniProt G1T4Q9); assay: Inhibition of the 20S proteasome peptidase activity (kinetic experiments); type: biochemical, Rabbit
T1 sequence (G1T4Q9 60-263): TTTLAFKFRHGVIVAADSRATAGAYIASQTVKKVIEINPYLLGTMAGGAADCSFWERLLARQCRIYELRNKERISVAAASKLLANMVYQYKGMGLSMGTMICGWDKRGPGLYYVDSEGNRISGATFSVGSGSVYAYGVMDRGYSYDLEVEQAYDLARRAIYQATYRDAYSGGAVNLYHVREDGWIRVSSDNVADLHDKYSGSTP
T1 sequence (G1SU71 1-241 partner): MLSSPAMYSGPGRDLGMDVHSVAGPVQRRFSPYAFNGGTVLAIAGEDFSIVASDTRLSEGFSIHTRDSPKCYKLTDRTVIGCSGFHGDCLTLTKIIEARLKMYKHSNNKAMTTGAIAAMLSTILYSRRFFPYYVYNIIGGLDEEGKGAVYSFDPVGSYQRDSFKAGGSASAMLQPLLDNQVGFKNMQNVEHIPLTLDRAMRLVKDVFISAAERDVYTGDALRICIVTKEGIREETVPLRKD
From the text: Tables I-III summarize results from kinetic experiments that measured the inhibition of the 20S and 26S proteasomes, as well as cathepsin B and calpain, enzymes that may also be involved in muscle protein turnover. In these tables, Ki values are reported, which are dissociation constants for the equilibrium that is established when enzyme and inhibitor interact to form the enzyme:inhibitor complex.
The substances and assay conditions are briefly summarized in the footnotes to Table I. MG 101 and MG 102, also known as Calpain Inhibitor I and II, were purchased from Calbiochem as catalogue products.
(^a) Rabbit muscle. SDSactivated. Substrate: SucLLVYAMC.

For CCCC[C@@H](C=O)NC(=O)[C@H](CC(C)C)NC(=O)[C@H](CC(C)C)NC(C)=O [MG 101, Ac-Leu-Leu-Nle-H] (Ac-Leu-Leu-[Nle]-aldehyde), the Ki [1] is listed as 5.7 µM, the “Amino acid pools in incubated muscle” value (rat diaphragm muscle [2]) is listed as “nor does it significantly alter amino acid pools” and the “Protein synthesis in incubated muscle” value (rat diaphragm muscle [2]; 3H-phenylalanine incorporation) is listed as “does not inhibit protein synthesis”. The “Protein degradation in incubated rat diaphragm” value (rat diaphragm muscle [2]; lysosomal and calcium dependent proteolysis inhibited, FIG. 2) was “inhibits the breakdown of muscle protein; also recorded: inhibition of protein degradation”, the “Protein degradation induced by T3 in incubated rat diaphragm” value (rat diaphragm muscle [3]) was “inhibits the accelerated proteolysis in muscle; also recorded: inhibition of protein degradation” and the “Mode of inhibition of peptidase activity of muscle 20S proteasome” value (20S proteasome; FIG. 1) was “competitive inhibitor”. The Ki (20S proteasome; both latent and active forms of 20S proteasome, read-out: Ki, peptidase activities of 20S proteasome) was 0.14 to 7 µM.
